Data: patent US20180085356A1, “METHOD OF TREATING DISEASE CHARACTERISED BY PROTEIN AGGREGATE DEPOSITION IN NEURONAL CELLS” (CHRONOS THERAPEUTICS LIMITED, priority 2013, published 2018)
Where two headings read alike, the source gives them in different places.

What was measured:
[1] = test system: C. elegans expressing wild-type human SOD-1 in the body wall muscle; assay: C. elegans lifespan assay, wild-type SOD-1 strain; type: in vivo, Caenorhabditis elegans
Procedure: (§1) Tacrolimus was tested in a number of disease models using the nematode worm, Caenorhabditis elegans, in which aggregate-prone proteins associated with neurodegenerative diseases are expressed in certain cell types. The effect of tacrolimus was determined by measuring the lifespan of worms in the presence and absence of tacrolimus, using the following general methodology. All of the worms tested using these assays also contained, in addition to the transgene expressing the disease-related protein, a mutation in the bus-5 gene which confers drug-sensitivity.
(§2) C. elegans cultures were synchronised by incubating an asynchronous culture in basic sodium hypochlorite solution to kill everything but the bleach-resistant mature eggs. […] From this point on, each ageing population was inspected at regular intervals (e.g. daily) and viability assessed by counting the number of dead worms.
(§3) The cumulative number of dead worms for each population was used to generate a survival/viability plot to determine chronological lifespan (CLS). Survival was analysed using the Kaplan-Meier log-rank survival analysis method, using the Online Application for Survival (OASIS; see http://sbi.postech.ac.kr/oasis). […]
(§4) The effect of tacrolimus on C. elegans expressing wild-type or mutant human SOD-1 in the body wall muscle was determined. […]

[2] = test system: FET3, SOD1, SOD2, COX9 transcripts; assay: Yeast transcript analysis by RT-qPCR; type: cell-based, Saccharomyces cerevisiae; details: 10 μg/ml tacrolimus, cultures aged 3 days, normalised to U4 snRNA
Procedure: A pre-culture was diluted 1/100 into synthetic complete medium and tacrolimus was added to a final concentration of 10 μg/ml. (An equivalent volume of DMSO was added to a parallel culture as a control.) The cultures were then allowed to age for 3 days, before RNA extraction and transcript analysis by reverse transcription-qPCR (RT-qPCR). (Transcript levels are normalised to that of the U4 snRNA.)

[3] = test system: C. elegans expressing mutant human SOD-1 (127X) in the body wall muscle; assay: C. elegans lifespan assay, mutant SOD-1 strain; type: in vivo, Caenorhabditis elegans
Procedure: as §1, §2, §3, §4

TNF-α = assay: Blood TNF-α levels in healthy human volunteers given tacrolimus capsule; type: in vivo
Procedure: (§5) A hard gelatine capsule was filled with the following composition:
(§6) One capsule as above containing 0.3 mg tacrolimus was administered daily to healthy human volunteers for three successive days. […] Similarly, no change in TNF-α levels occurred as a result of administering 0.6 mg daily of tacrolimus to healthy volunteers. The average trough level of tacrolimus (level after 24 hours of administration of each dose) observed was approximately 220 pg/ml.

TDP-43 = assay: Motor neuron culture with Aβ1-42 insult: extranuclear TDP-43 accumulation; type: cell-based, rat
Procedure: Primary motor neuron (MN) cultures generated from rat spinal cord were treated with 20 μM amyloid beta 1-42 peptide (Aβ1-42). […] This model was used to determine the effect of tacrolimus on TDP-43 toxicity in motor neurons. […] After permeabilisation with 0.1% saponin, one group of cells was incubated for 2 hours with a) mouse monoclonal anti-microtubule-associated-protein 2 (MAP-2) antibody, and b) rabbit polyclonal anti-TDP-43 antibody. The anti-MAP-2 antibody was used to determine MN survival (number of stained MN) and MN neurite length. The anti-TDP-43 antibody was used to examine extranuclear TDP-43: the area of extranuclear TDP-43 staining per MN was calculated by normalising to the number of MAP-2 positive cells.

TDP-43(Q331K) mice = assay: Rotarod testing of TDP-43(Q331K) transgenic mice; type: in vivo, mouse; details: tacrolimus 0.25, 1.25 and 2.5 mg/kg p.o. 6 days a week for 70 weeks vs. vehicle
[4] = in vivo
Procedure: Pharmacokinetic analysis was carried out by the Applicant. […] Therefore, even accounting for species differences in pharmacokinetics, preferred oral doses of tacrolimus in humans for the treatment of ALS would be expected to be below 1.3 mg/day and are likely to be below 0.55 mg/day.
Based on pharmacokinetic analysis, an oral tacrolimus dose of 2 mg/kg/day in the mouse is believed to correspond to a human oral dose of about 0.33-0.44 mg/day for a 70 kg person.

[5] = Tacrolimus blood levels in healthy human volunteers given capsule; type: in vivo; details: oral
Procedure: as §5, §6

[6] = test system: C. elegans expressing human alpha-synuclein in the body wall muscle; assay: C. elegans lifespan assay, alpha-synuclein strain; type: in vivo, Caenorhabditis elegans; details: p<0.05 DMSO vs. Tacrolimus
Procedure: as §1
as §2, with “eggs. The eggs were added on to agar plates and then allowed to hatch and develop in the presence of the test compound (or vehicle) and bacterial food source.” for “eggs.”
as §3

[7] = bec-1 RNAi, p>0.05 vs. bec-1 RNAi DMSO

What does the source list for `C=CC[C@@H]1/C=C(\C)C[C@H](C)C[C@H](OC)[C@H]2O[C@@](O)(C(=O)C(=O)N3CCCC[C@H]3C(=O)O[C@H](/C(C)=C/[C@@H]3CC[C@@H](O)[C@H](OC)C3)[C@H](C)[C@@H](O)CC1=O)[C@H](C)C[C@@H]2OC` [tacrolimus, Tacrolimus]?
lifespan ([1]; 10 μg/ml in NGM agar, p<0.05 DMSO vs. Tacrolimus): significant increase in lifespan; increase in lifespan when bec-1 knocked down by RNAi [1, 7]: virtually abolished; expression of transcripts FET3, SOD1, SOD2 and COX9 [2]: upregulated; increase in lifespan when bec-1 knocked down by RNAi [3, 7]: virtually abolished; lifespan ([3]; p<0.05 DMSO vs. Tacrolimus): significant increase in lifespan; blood TNF-α levels (TNF-α; 0.3 mg capsule daily for three successive days): No significant changes; TNF-α levels (TNF-α; 0.6 mg daily): no change; increase of TDP-43:MN ratio in response to Aβ1-42 insult relative to unchallenged cells (TDP-43; 100 nM tacrolimus, 24 hours, control cells increased by 191%): 35%; TDP-43 levels normalised to motor neuron number (TDP-43:MN ratio) (TDP-43; all 3 concentrations, 24 hours after Aβ1-42 insult): significantly reduced TDP-43 levels; progression of motor decline (rotarod latency) (TDP-43(Q331K) mice): delays the progression of motor decline; human oral dose corresponding to oral dose of 2 mg/kg/day in the mouse [4]: 0.44-0.33; average peak level ([5]; 0.3 mg capsule daily, three days): approximately 3700 pg/mL; concentration at 24 h ([5]; human, blood, two capsules, single dose of 0.6 mg, read-out: expected trough level): ~0.44 ng/mL; AUC ([5]; human, blood, 0.3 mg capsule daily, three days, read-out: average area under the curve AUC 0_t): ~23.5 ng·h/mL; concentration at 24 h ([5]; human, blood, 0.3 mg capsule daily, three days, read-out: average trough level (after 24 hours of administration of each dose)): ~0.22 ng/mL; lifespan [6]: significantly increasing the lifespan
